In US20040248859A1, “Medicinal compositions for treating secondary parathyroid hyperfunction and remedies for cardiovascular complications in association with treatment for secondary parathyroid hyperfunction” (priority 2001, published 2004):

Key:
[1] = tested on: 5/6 nephrectomized rats (kidney failure model with 2HPT); test: Ca and Pi contents in individual organs (aorta and heart) of 5/6 nephrectomized rats; type: in vivo, rat
Description: (§1) Rats with 5/6 nephrectomy (5/6 nephrectomized rats) were used as an experimental model to examine the agent of the present invention for its effect on cardiovascular complications. Such 5/6 nephrectomized rats are widely used as an experimental nephritis model with 2HPT (Ichikawa et al., Nephrology, vol. 4, pp. 391-395, 1998).
(§2) Seven-week-old male SD rats (Japan SLC, Inc.) were subjected to 5/6 nephrectomy according to the method of Platt et al. (Platt R. et al., Clin. Sci. 11, 217-231, 1952) to remove the whole of the right kidney and 2/3 of the left kidney. The rats were then allowed to rest for 10 weeks to create a kidney failure model with 2HPT.
(§3) The nephrectomized rats were divided into 4 test groups: OCT 1.25 μg/kg group (8 rats), OCT 6.25 μg/kg group (8 rats), 1,25(OH)2D3 0.125 μg/kg group (8 rats) and 1,25(OH)2D3 0.625 μg/kg group (8 rats).
(§4) Starting at 10 weeks after surgery, the rats of each group were administered with a given dose of OCT or 1,25-dihydroxyvitamin D3 (each dissolved in phosphate buffer, pH 6.52) via the tail vein. Administration was conducted three times a week for a total of 7 administration (i.e., on Monday, Wednesday, Friday, Monday, Wednesday, Friday and Monday). Twenty-four hours after the last administration, the blood was collected from the abdominal descending aorta of each rat under ether anesthesia. The rats were then sacrificed by exsanguination and the heart and aorta were excised from each rat.
(§5) Six rats of sham-operated (Sham control) group were subjected to renal decapsulation alone instead of 5/6 nephrectomy and then treated in the same manner as used for the test groups, except that phosphate buffer (Ph 6.52) was administered instead of OCT or 1,25-dihydroxyvitamin D3. Likewise, 9 rats of SNX control group were treated in the same manner as used for the test groups, except that phosphate buffer (pH 6.52) was administered instead of OCT or 1,25-dihydroxyvitamin D3.
Each heart and aorta were lyophilized for 24 hours in a FREEZE DRYER FD-5N (trade name, EYELA) and then treated for 48 hours with a chloroform/methanol solution (chloroform:methanol=2:1, special-reagent-grade chloroform and methanol were both purchased from Junsei Chemical Co., Ltd.). Subsequently, each organ was dehydrated for 3 hours with acetone (special reagent grade, Junsei Chemical Co., Ltd.) and then allowed to stand at room temperature for 24 hours. After delipidization and dehydration, each organ was transferred to a crucible and weighed to determine dry weight (Mettler). Ashing was carried out in a muffle furnace KDF S90 (trade name, Denken Co., Ltd., Kyoto, Japan) at 900° C. for 12 hours. The ashed sample was mixed with […] hydrochloric acid (1.0 mL), allowed to stand for 3 hours to dissolve sufficiently, and then collected in a polypropylene tube. The crucible was washed with purified water (1.0 mL), which was then also collected in the tube. Each sample was stored at 4° C. until measurement. Ca and Pi were measured with a Hitachi 7170-E autoanalyzer to calculate the Ca and Pi contents per gram of each organ.
(§6) The relationship between Sham control group and SNX control group was analyzed by unpaired t-test. The relationship between SNX control group and each OCT- or 1,25(OH)2D3-administered group was analyzed by Dunnett's multiple comparison test.

[2] = tested on: 5/6 nephrectomized rats (kidney failure model with 2HPT); test: Ca and Pi in serum (serum Ca×Pi product) of 5/6 nephrectomized rats; type: in vivo, rat; settings: for serum Ca×Pi product over the SNX control group: three times a week, 7 administrations
Description: as §1, §2, §3, §4, §5
2. Ca and Pi in serum After serum was separated from the collected blood, Ca and Pi contained in the serum were measured with a Hitachi 7170-E autoanalyzer using an Autosera reagent (Daiichi Pure Chemicals Co., Ltd.) to determine the serum Ca×Pi product for each rat.
as §6

[3] = in vivo; cited from earlier work
[4] = tested on: 5/6 nephrectomized rats (kidney failure model with 2HPT); test: Parathyroid hormone levels in blood (serum PTH, radioimmunoassay) of 5/6 nephrectomized rats; type: in vivo, rat; settings: for effect on serum PTH levels: all doses (OCT 1.25 and 6.25 μg/kg, 1,25(OH)2D3 0.125 and 0.625 μg/kg), versus SNX control
Description: as §1, §2, §3
as §4, with “rat. […]” for “rat.”
After serum was separated from the collected blood, the level of parathyroid hormone (PTH) contained in the serum was measured with a commercially available radioimmunoassay kit (Immutopics, Inc., USA).
as §6

[5] = 1,25(OH)2D3 0.125 μg/kg group versus OCT 6.25 μg/kg group (almost the same serum Ca×Pi product)
[6] = 5/6 nephrectomized rats, via tail vein

| deposition of Ca and Pi in the aorta and heart, OCT-administered groups versus 1,25(OH)2D3-administered groups ([1]; rat, in vivo) | blood calcium levels ([2]; rat, in vivo) | SMILES | blood half-life [3] | effect on serum PTH levels [4] | Ca content in the aorta over the SNX control group ([1]; 0.125 and 0.625 μg/kg, p<0.001) | Ca content in the heart over the SNX control group ([1]; 0.125 and 0.625 μg/kg, p<0.001) | Pi content in the aorta over the SNX control group ([1]; 0.125 and 0.625 μg/kg, p<0.001) | Pi content in the heart over the SNX control group ([1]; 0.125 and 0.625 μg/kg, p<0.001) | deposition of Ca in the aorta as compared to OCT [1, 5] | deposition of Pi in the aorta as compared to OCT [1, 5] | deposition of Pi in the heart as compared to OCT ([1]; 1,25(OH)2D3 0.125 μg/kg group versus OCT 6.25 μg/kg group, p<0.01) | deposition of Ca in the heart as compared to OCT ([1]; 1,25(OH)2D3 0.125 μg/kg group versus OCT 6.25 μg/kg group, p<0.05) | serum Ca×Pi product over the SNX control group ([2]; 0.125 μg/kg via tail vein) | serum Ca×Pi product over the SNX control group ([2]; 0.625 μg/kg via tail vein, 24 h after last administration, p<0.001) | minimum dose required to produce an elevating action on Ca×Pi product [2, 6] [µg/kg] | serum Ca×Pi product, comparison of the two groups ([2]; OCT 6.25 μg/kg group versus 1,25(OH)2D3 0.125 μg/kg group) | dose at which the therapeutic effect on secondary hyperparathyroidism (decreasing effect on PTH levels) can be produced [4, 6] [µg/kg] |
| --- | --- | --- | --- | --- | --- | --- | --- | --- | --- | --- | --- | --- | --- | --- | --- | --- | --- |
| significantly lower deposition | does not cause increase | C=C1/C(=C\C=C2/CCC[C@]3(C)[C@@H]([C@H](C)OCCC(C)(C)O)CC[C@@H]23)C[C@@H](O)C[C@@H]1O [OCT, 1α,3β-dihydroxy-20S-(3-hydroxy-3-methylbutyloxy)-9,10-seco-5,7,10(19)-pregnatriene] | about 20 minutes | decreasing effect on PTH levels at all doses |  |  |  |  |  |  |  |  |  |  |  |  |  |
|  |  | C=C1/C(=C\C=C2/CCC[C@]3(C)[C@@H]([C@H](C)CCCC(C)(C)O)CC[C@@H]23)C[C@@H](O)C[C@@H]1O [1,25-dihydroxyvitamin D3] | ≥ 1 h | decreasing effect on PTH levels at all doses | dose-dependent significant increases | dose-dependent significant increases | dose-dependent significant increases | dose-dependent significant increases | apparently higher deposition | apparently higher deposition | significantly higher deposition | significantly higher deposition | no significant elevation | significant elevation | 0.625 | almost the same level | 0.125 |
